Where a name gives a salt, the structure may show the parent alone. Read-outs that look alike come from different tables or passages of the source.
How the values were obtained:
[1] = for Colour/Aspect 10 months later / Purity (HPLC) 10 months later / XRD result 10 months later: room temperature, ambient atmosphere; for Purity (HPLC) % initial / XRD result Initial: before storage
[2] = Particle size studies of rasagiline salts (Malvern Mastersizer S); conditions: particle size by volume, suspended in Isopar G with soybean lecithin
[3] = Flowability studies of rasagiline salts (bulk and tapped density, Hausner ratio); conditions: for Flowability: flow character by Hausner ratio; for Bulk density: freely settled; for Hausner ratio: tapped bulk density divided by bulk density
[4] = Accelerated stability studies of rasagiline salts (40° C. and 75% RH; PE and AL bags); assay type: physicochemical; conditions: for XRD 1st Month / XRD 2nd Month / Purity (HPLC) 1st Month / Purity (HPLC) 2nd Month: 40° C. and 75% RH; for XRD 1st Month / Purity (HPLC) 1st Month: 1 month; for XRD 2nd Month / Purity (HPLC) 2nd Month: 2 months
Experimental: Rasagiline salts were submitted to accelerated conditions (40° C. and 75% RH) in two types of bags: polyethylene (PE) and aluminium (AL) bags. The samples were characterized by HPLC, XRD, and visual inspection.

physchem = conditions: water
Experimental: The mother liquors were analyzed by HPLC.

[5] = 40° C. and 75% RH for one and two months
[6] = room temperature, stirred until equilibration, HPLC
[7] = listed as rasagiline besylate Form I
[8] = listed as rasagiline succinate Form I

Molecule | Colour/Aspect 10 months later [1] | Purity (HPLC) 10 months later [1] [%] | XRD result 10 months later [1] | Purity (HPLC) % initial [1] [%] | XRD result Initial [1] | stability after ten months of storage (in words) [1] | D(v, 0.1) [2] [μm] | D(v, 0.5) [2] [μm] | D(v, 0.9) [2] [μm] | Tapped density [3] [g/mL] | Bulk density [3] [g/mL] | Purity (HPLC) % initial [4] [%] | XRD Initial [4] | other results
C#CCN[C@@H]1CCc2ccccc21.O=C(O)[C@H]1OC(O)[C@H](O)[C@@H](O)[C@@H]1O [D-Glucuronate, rasagiline D-glucuronate] | brown oil | 50.64 | amorphous | 86.00 | amorphous | highly stable in terms of polymorphic form | – | – | – | – | – | – | – | –
C#CCN[C@@H]1CCc2ccccc21.O=C(O)[C@@H](O)[C@H](O)[C@H](O)[C@@H](O)C(=O)O [Galactarate, rasagiline galactarate] | – | 98.81 | – | 98.92 | – | stable in terms of chemical purity and of polymorphic form | – | – | – | – | – | – | – | –
C#CCN[C@@H]1CCc2ccccc21.O=C(O)[C@H](O)[C@@H](O)[C@H](O)[C@H](O)CO [Gluconate, rasagiline gluconate] | brown oil | 96.36 | amorphous | 98.61 | amorphous | – | – | – | – | – | – | – | – | –
C#CCN[C@@H]1CCc2ccccc21.C#CCN[C@@H]1CCc2ccccc21.O=C(O)C(O)C(O)C(=O)O [Hemitartrate Form I, rasagiline L-hemitartrate] | white powder | 98.86 | Form I | 99.14 | Form I | highly stable in terms of visual aspect, chemical purity and of polymorphic form | 4.5 | 18.3 | 78.8 | 0.181 | 0.138 | 99.27 | Form I | Flowability [3]: Passable (1.26-1.34); Flowability ([3]; listed as rasagiline L-hemitartrate Form I): passable; Flowability ([3]; listed as rasagiline L-hemitartrate salt Form I): excellent; stability under accelerated stability conditions (in words) [4, 5]: highly stable in terms of visual aspect, chemical purity and of polymorphic form
C#CCN[C@@H]1CCc2ccccc21 [Hydrochloride Form II, rasagiline hydrochloride] | – | – | – | – | – | – | 41.7 | 99.6 | 185.2 | 0.673 | 0.673 | >99.9 | Form II | Solubility (physchem; thermodynamic from solid): ~400 mg/mL; Flowability ([3]; hydrochloride): Excellent (1.00-1.11); Flowability ([3]; listed as rasagiline hydrochloride Form II, hydrochloride): excellent; Flowability ([3]; listed as rasagiline hydrochloride salt Form II, hydrochloride): excellent; stability under accelerated stability conditions (in words) [4, 5]: highly stable in terms of visual aspect, chemical purity and of polymorphic form; XRD 1st Month ([4]; AL bag): Form II; XRD 2nd Month ([4]; AL bag): Form II; XRD 1st Month ([4]; PE bag): Form II; XRD 2nd Month ([4]; PE bag): Form II; Purity (HPLC) 1st Month ([4]; aluminium (AL) bag): >99.9%; Purity (HPLC) 2nd Month ([4]; aluminium (AL) bag): >99.9%; Purity (HPLC) 1st Month ([4]; polyethylene (PE) bag): >99.9%; Purity (HPLC) 2nd Month ([4]; polyethylene (PE) bag): >99.9%
C#CCN[C@@H]1CCc2ccccc21 [Hydrochloride, rasagiline hydrochloride] | white powder | 99.74 | Form I | 99.18 | Form I | highly stable in terms of chemical purity and of polymorphic form | – | – | – | – | – | – | – | –
C#CCN[C@@H]1CCc2ccccc21.CS(=O)(=O)O [Mesylate, R-(+)-N-propargyl-1-aminoindan mesylate, reference compound] | white powder | 99.8 | Form I | 99.58 | Form I | – | – | – | – | 0.407 | 0.236 | – | – | Flowability ([3]; listed as rasagiline mesylate, mesylate): very, very poor; Flowability ([3]; mesylate): Very, very poor (>1.60)
rasagiline besylate [Besylate Form I] | – | – | – | – | – | – | 6.5 | 28.8 | 50.6 | 0.435 | 0.427 | >99.9 | Form I | Descriptive term (solubility) (physchem; room temperature): Freely soluble; Solubility (physchem; [6]): >800 mg/mL; Solubility (physchem; room temperature, stirred until equilibration, HPLC, listed as rasagiline besylate Form I): > 800 mg/mL; Descriptive term (solubility) (physchem; room temperature, listed as rasagiline besylate Form I): freely soluble; Flowability [3]: Excellent (1.00-1.11); Flowability [3, 7]: excellent; Flowability ([3]; listed as rasagiline besylate salt Form I): excellent; Hausner ratio [3]: 1.02; Hausner ratio [3, 7]: 1.00; stability under accelerated stability conditions (in words) ([4]; 40° C. and 75% RH for one month): stable in terms of chemical purity and of polymorphic form; XRD 1st Month ([4]; AL bag): Form I; Purity (HPLC) 1st Month ([4]; aluminium (AL) bag): >99.9%; Purity (HPLC) 1st Month ([4]; polyethylene (PE) bag): >99.9%
rasagiline fumarate | – | 53.64 | – | 59.56 | Form I | – | – | – | – | – | – | – | – | –
rasagiline maleate | white powder | 63.27 | – | 66.54 | Form I | – | – | – | – | – | – | – | – | –
rasagiline phosphate | white powder | 99.60 | – | 98.45 | amorphous | – | – | – | – | – | – | – | – | –
rasagiline succinate [Succinate Form I] | – | 99.61 | Form I | 99.29 | Form I | highly stable in terms of visual aspect, chemical purity and of polymorphic form | 23.6 | 85.1 | 180.4 | 0.513 | 0.492 | >99.9 | Form I | Descriptive term (solubility) (physchem; room temperature): Very soluble; Solubility (physchem; [6]): >1200 mg/mL; Solubility (physchem; room temperature, stirred until equilibration, HPLC, listed as rasagiline succinate Form I): > 1200 mg/mL; Descriptive term (solubility) (physchem; room temperature, listed as rasagiline succinate Form I): very soluble; Flowability [3]: Excellent (1.00-1.11); Flowability [3, 8]: excellent; Flowability ([3]; listed as rasagiline succinate salt Form I): excellent; Hausner ratio [3]: 1.04; Hausner ratio [3, 8]: about 1.04; stability under accelerated stability conditions (in words) [4, 5]: highly stable in terms of visual aspect, chemical purity and of polymorphic form; XRD 1st Month ([4]; AL bag): Form I; XRD 2nd Month ([4]; AL bag): Form I; XRD 1st Month ([4]; PE bag): Form I; XRD 2nd Month ([4]; PE bag): Form I; Purity (HPLC) 1st Month ([4]; aluminium (AL) bag): >99.9%; Purity (HPLC) 2nd Month ([4]; aluminium (AL) bag): 99.92%; Purity (HPLC) 1st Month ([4]; polyethylene (PE) bag): >99.9%; Purity (HPLC) 2nd Month ([4]; polyethylene (PE) bag): 99.92%
rasagiline tosylate | – | 75.89 | Form I | 79.87 | Form I | highly stable in terms of polymorphic form | – | – | – | – | – | – | – | –
